Target: ERRα ligand binding domain (ERRα-LBD) (Homo sapiens (Human), UniProt P11474)
Test: ERRα AlphaScreen Assay
Format: biochemical
Conditions: disruption of binding of ERRα-LBD protein to biotin-PGC1α-3 co-activator peptide; for IC50: read-out: mean pIC50 (converted)
Description: This assay was based on the knowledge that nuclear receptors interact with cofactors in a ligand dependent matter. The sites of interaction have been mapped to LXXLL motifs that are present in the co-activator sequences. Short peptide sequences that contain the LXXLL motif mimic the behavior of full length co-activators.
The ERRα AlphaScreen Assay described here relies on the interaction of the co-activator peptide with purified bacterial-expressed ERRα ligand binding domain (ERRα-LBD); upon ligand binding the ERRα protein can undergo a conformational change resulting in a loss of co-activator binding.
Compounds of the present invention were tested for their ability to disrupt binding of ERRα-LBD protein to co-activator peptide using AlphaScreen® Technology (Perkin Elmer). ERRα-LBD protein was expressed in E. coli as a 6×His Small Ubiquitin-like Modifier (SUMO) fusion. Bacterial expressed 6His-SUMO-ERRα-LBD protein was purified using affinity chromatography. All experiments were performed at room temperature in 384-well white non-binding plates (Greiner) using 50 mM Tris-HCl pH 7.5, 100 mM NaCl, 0,1% Pluronic F-127, 0.05% BSA and 5 mM TCEP as the buffer. Final DMSO concentration was 1% in the assay. Compounds were assayed in triplicate and: incubated with 0.81 nM ERRα-LBD protein and 10 μg/mL streptavidin donor beads and 10 μg/mL Ni-chelate acceptor beads for 1 hour at room temperature; followed by a 2-hour incubation with 15 nM biotin-PGC1α-3 peptide (QRRPCSELLKYLTTNDDPP) corresponding to amino acids 202 to 220.
The AlphaScreen signal was measured using an Envision Xcite plate reader (Perkin Elmer). Data was normalized, and curve fitting analysis was performed in GraphPad Prism 7 using a four-parameter dose-response fit.
As multiple IC50 values were annotated for the same compound-protein pair, a mean pIC50 for each compound was determined.

Chain of ERRα ligand binding domain (ERRα-LBD) (P11474 193-421): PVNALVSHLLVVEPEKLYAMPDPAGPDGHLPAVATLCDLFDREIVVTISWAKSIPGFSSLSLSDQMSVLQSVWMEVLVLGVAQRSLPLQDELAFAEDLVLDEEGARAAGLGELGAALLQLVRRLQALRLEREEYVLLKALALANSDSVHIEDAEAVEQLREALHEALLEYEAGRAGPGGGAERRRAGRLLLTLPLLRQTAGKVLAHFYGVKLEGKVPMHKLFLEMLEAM

| IC50 | mean pIC50 | SMILES |
| --- | --- | --- |
| 10 to 100 nM |  | O=C1CC(c2ccc(OCc3ccccc3C(F)(F)F)cc2)c2c[nH]nc2N1 (stereo not shown) [Example 59, 4-(4-{[2-(trifluoromethyl)phenyl]methoxy}phenyl)-2H,4H,5H,6H,7H-pyrazolo[3,4-b]pyridin-6-one] |
| 100 to 1000 nM |  | COc1cc(C2CC(=O)Nc3n[nH]c(F)c32)ccc1OCc1ccccc1C(F)(F)F (stereo not shown) [Example 95, 3-fluoro-4-(3-methoxy-4-{[2-(trifluoromethyl)phenyl]methoxy}phenyl)-2H,4H,5H,6H, 7H-pyrazolo[3,4-b]pyridin-6-one] |
| 100 to 1000 nM |  | COc1cc(C2CC(=O)Nc3n[nH]cc32)ccc1OCc1ccncc1C(F)(F)F (stereo not shown) [Example 50, 4-(3-methoxy-4-{[3-(trifluoromethyl)pyridin-4-yl]methoxy}phenyl)-2H,4H,5H,6H,7H-pyrazolo[3,4-b]pyridin-6-one] |
| 100 to 1000 nM |  | COc1cc(C2CC(=O)Nc3ncsc32)ccc1OCc1ccccc1C(F)(F)F (stereo not shown) [Example 88, 7-(3-methoxy-4-{[2-(trifluoromethyl)phenyl]methoxy}phenyl)-4H,5H,6H,7H-[1,3]thiazolo[4,5-b]pyridin-5-one] |
| 100 to 1000 nM |  | COc1cc(C2CC(=O)Nc3n[nH]cc32)ccc1OCc1ccccc1C(=O)OC(C)C (stereo not shown) [Example 127, propan-2-yl 2-(2-methoxy-4-{6-oxo-2H,4H,5H,6H,7H-pyrazolo[3,4-b]pyridin-4-yl}phenoxymethyl)benzoate] |
| 10 to 100 nM |  | COc1cc(-c2cc(=O)[nH]c3n[nH]cc23)ccc1OCc1ccc(C#N)cc1C(F)(F)F [Example 181, 4-[(2-methoxy-4-{6-oxo-2H,6H, 7H-pyrazolo[3,4-b]pyridin-4-yl}phenoxy)methyl]-3-(trifluoromethyl)benzonitrile] |
| 10 to 100 nM |  | COc1cc(C2CC(=O)Nc3n[nH]cc32)ccc1COc1ccc(C(F)F)cc1C(F)(F)F (single isomer, unassigned; (+)) [Example 195, (+)-4-(4-{[4-(difluoromethyl)-2-(trifluoromethyl)phenoxy]methyl}-3-methoxyphenyl)-2H,4H,5H,6H,7H-pyrazolo[3,4-b]pyridin-6-one] |
| 10 to 100 nM |  | COc1cc(C2CC(=O)Nc3n[nH]cc32)ccc1COc1ccc(C(F)F)cc1C(F)F (stereo not shown) [Example 116, 4-(4-{[2,4-bis(difluoromethyl)phenoxy]methyl}-3-methoxyphenyl)-2H,4H,5H,6H,7H-pyrazolo[3,4-b]pyridin-6-one] |
| 10 to 100 nM |  | O=C1CC(c2ccc(OCc3ccccc3C(F)(F)F)c(Br)c2)c2c[nH]nc2N1 (stereo not shown) [Example 70, 4-(3-bromo-4-{[2-(trifluoromethyl)phenyl]methoxy}phenyl)-2H,4H,5H,6H, 7H-pyrazolo[3,4-b]pyridin-6-one] |
| 100 to 1000 nM |  | O=C1CC(c2ccc(OCc3ccccc3C(F)(F)F)c(C(=O)OCCO)c2)c2c[nH]nc2N1 (stereo not shown) [Example 132, 2-hydroxyethyl 5-{6-oxo-2H,4H,5H,6H, 7H-pyrazolo[3,4-b]pyridin-4-yl}-2-{[2-(trifluoromethyl)phenyl]methoxy}benzoate] |
| 10 to 100 nM |  | COc1cc(C2CC(=O)Nc3n[nH]cc32)ccc1COc1ccc(C(F)(F)F)cc1C (stereo not shown) [Example 112, 4-(3-methoxy-4-{[2-methyl-4-(trifluoromethyl)phenoxy]methyl}phenyl)-2H,4H,5H,6H,7H-pyrazolo[3,4-b]pyridin-6-one] |
| 100 to 1000 nM |  | COc1cc(C2CC(=O)Nc3n[nH]cc32)c(F)cc1OCc1cccc(F)c1C(F)(F)F (stereo not shown) [Example 77, 4-(2-fluoro-4-{[3-fluoro-2-(trifluoromethyl)phenyl]methoxy}-5-methoxyphenyl)-2H,4H,5H,6H,7H-pyrazolo[3,4-b]pyridin-6-one] |
|  | ≥ 8 | COc1cc(C2CC(=O)Nc3n[nH]cc32)ccc1OCc1ccc(O)cc1C(F)(F)F (stereo not shown) [Example 154, 4-(4-{[4-hydroxy-2-(trifluoromethyl)phenyl]methoxy}-3-methoxyphenyl)-2H,4H,5H,6H, 7H-pyrazolo[3,4-b]pyridin-6-one] |
| 100 to 1000 nM |  | COc1ccccc1COc1ccc(C2CC(=O)Nc3n[nH]cc32)cc1OC (stereo not shown) [Example 30, 4-{3-methoxy-4-[(2-methoxyphenyl)methoxy]phenyl}-2H,4H,5H,6H,7H-pyrazolo[3,4-b]pyridin-6-one] |
| 100 to 1000 nM |  | COc1cc(-c2cc(=O)[nH]c3[nH]ccc23)ccc1OCc1ccccc1C(F)(F)F [Example 168, 4-(3-methoxy-4-{[2-(trifluoromethyl)phenyl]methoxy}phenyl)-1H,6H, 7H-pyrrolo[2,3-b]pyridin-6-one] |
| 100 to 1000 nM |  | Nc1cc(C2CC(=O)Nc3n[nH]cc32)ccc1OCc1ccccc1C(F)(F)F (stereo not shown) [Example 161, 4-(3-amino-4-{[2-(trifluoromethyl)phenyl]methoxy}phenyl)-2H,4H,5H,6H, 7H-pyrazolo[3,4-b]pyridin-6-one] |
| 100 to 1000 nM |  | COc1cc(C2CC(=O)Nc3n[nH]cc32)ccc1OCc1cccc2c1OCCCO2 (stereo not shown) [Example 51, 4-{4-[(3,4-dihydro-2H-1,5-benzodioxepin-6-yl)methoxy]-3-methoxyphenyl}-2H,4H,5H, 6H, 7H-pyrazolo[3,4-b]pyridin-6-one] |
| 100 to 1000 nM |  | COc1cc(Br)c(COc2ccc(-c3cc(=O)[nH]c4n[nH]cc34)cc2OC)cc1OC [Example 184, 4-{4-[(2-bromo-4,5-dimethoxyphenyl)methoxy]-3-methoxyphenyl}-2H,6H, 7H-pyrazolo[3,4-b]pyridin-6-one] |
| 100 to 1000 nM |  | COc1cc(C2CC(=O)Nc3n[nH]cc32)ccc1OCc1ccc(S(C)(=O)=O)cc1C(F)(F)F (stereo not shown) [Example 37, 4-(4-{[4-methanesulfonyl-2-(trifluoromethyl)phenyl]methoxy}-3-methoxyphenyl)-2H,4H,5H,6H,7H-pyrazolo[3,4-b]pyridin-6-one] |
| 10 to 100 nM |  | CCc1cc(C2CC(=O)Nc3n[nH]cc32)ccc1OCc1ccccc1C(F)(F)F (stereo not shown) [Example 71, 4-(3-ethyl-4-{[2-(trifluoromethyl)phenyl]methoxy}phenyl)-2H,4H,5H,6H,7H-pyrazolo[3,4-b]pyridin-6-one] |
| 100 to 1000 nM |  | COc1cc(C2CC(=O)Nc3n[nH]cc32)ccc1OCc1ccccc1C(F)F (stereo not shown) [Example 49, 4-(4-{[2-(difluoromethyl)phenyl]methoxy}-3-methoxyphenyl)-2H,4H,5H,6H, 7H-pyrazolo[3,4-b]pyridin-6-one] |
| 100 to 1000 nM |  | COc1cc(C2CC(=O)Nc3c[nH]nc32)ccc1OCc1ccc(N)cc1C(F)(F)F (stereo not shown) [Example 137, 7-(4-{[4-amino-2-(trifluoromethyl)phenyl]methoxy}-3-methoxyphenyl)-2H,4H,5H,6H, 7H-pyrazolo[4,3-b]pyridin-5-one] |
| 10 to 100 nM |  | COc1cc(C2CC(=O)Nc3n[nH]cc32)ccc1OCc1ccc(C(C)(C)CO)cc1C(F)(F)F (stereo not shown) [Example 152, 4-(4-{[4-(1-hydroxy-2-methylpropan-2-yl)-2-(trifluoromethyl)phenyl]methoxy}-3-methoxyphenyl)-2H,4H,5H,6H, 7H-pyrazolo[3,4-b]pyridin-6-one] |
| 10 to 100 nM |  | COc1cc(C2CC(=O)Nc3n[nH]cc32)ccc1OCc1ccc(NC(C)=O)cc1C(F)(F)F (stereo not shown) [Example 139, N-{4-[(2-methoxy-4-{6-oxo-2H,4H,5H,6H,7H-pyrazolo[3,4-b]pyridin-4-yl}phenoxy)methyl]-3-(trifluoromethyl)phenyl}acetamide] |
|  | ≥ 8 | COc1cc(C2CC(=O)Nc3[nH]nnc32)ccc1OCc1ccccc1C(F)(F)F (stereo not shown) [Example 90, 7-(3-methoxy-4-{[2-(trifluoromethyl)phenyl]methoxy}phenyl)-3H,4H,5H,6H, 7H-[1,2,3]triazolo[4,5-b]pyridin-5-one] |

From patent US12527774B2, “Estrogen-related receptor alpha modulators” (LEAD PHARMA HOLDING B.V., priority 2019, dated 2026)
